Target: GTPase KRas (Homo sapiens, UniProt P01116, G12V)
Experiment: Inhibition of His6-tagged KRas G12V mutant (unknown origin) expressed in Escherichia coli BL21(DE3) cells assessed as reduction in Ras/GST-fused Raf RBD interaction incubated for 1 hr by HTRF assay
Conditions: not given; call rule not given here

GTPase KRas, sequence (P01116 whole entry G12V, the tested form may be a part): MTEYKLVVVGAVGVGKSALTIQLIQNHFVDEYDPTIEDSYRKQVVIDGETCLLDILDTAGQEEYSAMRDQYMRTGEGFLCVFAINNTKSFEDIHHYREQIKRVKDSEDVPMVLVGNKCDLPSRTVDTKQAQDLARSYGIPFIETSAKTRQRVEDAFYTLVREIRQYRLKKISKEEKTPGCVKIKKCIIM

| SMILES | IC50 |
| --- | --- |
| CC(C)[C@@H](NC(=O)[C@H](CO)NC(=O)[C@H](CC(=O)O)NC(=O)[C@@H](Cc1ccc(O)cc1)NC(=O)[C@@H]1CNC(=O)c2cc3cc(c2)C(=O)N[C@H](Cc2ccc4ccccc4c2)C(=O)N[C@@H](CO)C(=O)N[C@@H](CCC(N)=O)C(=O)N[C@H](Cc2ccc4ccccc4c2)C(=O)N[C@@H](c2ccccc2)C(=O)N[C@@H](CCCCNC3=O)C(=O)N[C@H](Cc2ccccc2)C(=O)N[C@@H](C)C(=O)N[C@H](CCCNC(=N)N)C(=O)N[C@@H](CCCNC(=N)N)C(=O)N1)C(=O)N[C@@H](CCCCN)C(N)=O | Not Active |

System: NCI-H358
Experiment: Antiproliferative activity against human NCI-H358 cells incubated for 96 hrs by Celltiter-Glo assay
Format: functional, cell-based
Conditions: Homo sapiens, NCI-H358, 96 h; read-out: EC50

| SMILES | EC50 [µM] |
| --- | --- |
| C[C@@H](NC(=O)[C@H](Cc1ccccc1)NC(=O)[C@@H](CCCNC(=N)N)NC(=O)[C@H](CCCN)NC(=O)[C@@H]1CNC(=O)c2cc3cc(c2)C(=O)N[C@H](Cc2ccc4ccccc4c2)C(=O)N[C@@H](CO)C(=O)N[C@@H](CC(N)=O)C(=O)N[C@H](Cc2ccc4ccccc4c2)C(=O)N[C@@H](c2ccccc2)C(=O)N[C@@H](CCCCNC3=O)C(=O)N[C@H](Cc2ccccc2)C(=O)N[C@H](CCCN)C(=O)N[C@H](CCCNC(=N)N)C(=O)N[C@@H](CCCNC(=N)N)C(=O)N1)C(N)=O | 6.4 |
| C[C@H](NC(=O)C[C@H](Cc1ccccc1)NC(=O)[C@@H](CCCNC(=N)N)NC(=O)[C@H](CCCN)NC(=O)[C@@H]1CNC(=O)c2cc3cc(c2)C(=O)N[C@H](Cc2ccc4ccccc4c2)C(=O)N[C@@H](CO)C(=O)N[C@@H](CC(N)=O)C(=O)N[C@H](Cc2ccc4ccccc4c2)C(=O)N[C@@H](c2ccccc2)C(=O)N[C@@H](CCCCNC3=O)C(=O)N[C@H](Cc2ccccc2)C(=O)N[C@H](CCC(N)=O)C(=O)N[C@H](CCCNC(=N)N)C(=O)N[C@@H](CCCNC(=N)N)C(=O)N1)C(N)=O | 7.4 |
| C[C@@H]1NC(=O)[C@H](CO)NC(=O)[C@@H](Cc2ccc3ccccc3c2)NC(=O)c2cc3cc(c2)C(=O)NC[C@@H](C(=O)N[C@@H](CCCN)C(=O)N[C@H](CCCNC(=N)N)C(=O)N[C@@H](Cc2ccccc2)C(=O)N[C@H](C)C(N)=O)NC(=O)[C@H](CCCNC(=N)N)NC(=O)[C@@H](CCCNC(=N)N)NC(=O)[C@@H](CCC(N)=O)NC(=O)[C@@H](Cc2ccccc2)NC(=O)[C@H](CCCCNC3=O)NC(=O)[C@H](c2ccccc2)NC(=O)[C@@H](Cc2ccc3ccccc3c2)NC1=O | 4.9 |
| C[C@@H](NC(=O)[C@H](Cc1ccccc1)NC(=O)[C@@H](CCCNC(=N)N)NC(=O)[C@H](CCCN)NC(=O)[C@@H]1CNC(=O)c2cc3cc(c2)C(=O)N[C@H](Cc2ccc4ccccc4c2)C(=O)N[C@@H](CO)C(=O)N[C@@H](CC(N)=O)C(=O)N[C@H](Cc2csc4ccccc24)C(=O)N[C@@H](c2ccccc2)C(=O)N[C@@H](CCCCNC3=O)C(=O)N[C@H](Cc2ccccc2)C(=O)N[C@H](CCC(N)=O)C(=O)N[C@H](CCCNC(=N)N)C(=O)N[C@@H](CCCNC(=N)N)C(=O)N1)C(N)=O | 5.2 |
| N=C(N)NCCC[C@@H]1NC(=O)[C@@H](CCCNC(=N)N)NC(=O)[C@@H](CCC(N)=O)NC(=O)[C@@H](Cc2ccccc2)NC(=O)[C@@H]2CCCCNC(=O)c3cc(cc(c3)C(=O)N[C@H](Cc3ccc4ccccc4c3)C(=O)N[C@@H](CO)C(=O)N[C@@H](CC(N)=O)C(=O)N[C@H](Cc3ccc4ccccc4c3)C(=O)N[C@@H](c3ccccc3)C(=O)N2)C(=O)NC[C@@H](C(=O)N[C@@H](CCCN)C(=O)N[C@H](CCCNC(=N)N)C(=O)N[C@@H](Cc2ccccc2)C(=O)N[C@H](CO)C(N)=O)NC1=O | 5.3 |
| C[C@@H](NC(=O)[C@H](Cc1ccccc1)NC(=O)[C@@H](CCCNC(=N)N)NC(=O)[C@H](CCCN)NC(=O)[C@@H]1CNC(=O)c2cc3cc(c2)C(=O)N[C@H](Cc2csc4ccccc24)C(=O)N[C@@H](CO)C(=O)N[C@@H](CC(N)=O)C(=O)N[C@H](Cc2ccc4ccccc4c2)C(=O)N[C@@H](c2ccccc2)C(=O)N[C@@H](CCCCNC3=O)C(=O)N[C@H](Cc2ccccc2)C(=O)N[C@H](CCC(N)=O)C(=O)N[C@H](CCCNC(=N)N)C(=O)N[C@@H](CCCNC(=N)N)C(=O)N1)C(N)=O | 17 |
| C[C@@H]1NC(=O)[C@@H](Cc2ccccc2)NC(=O)[C@@H]2CCCCNC(=O)c3cc(cc(c3)C(=O)N[C@H](Cc3ccc4ccccc4c3)C(=O)N[C@@H](CO)C(=O)N[C@@H](CC(N)=O)C(=O)N[C@H](Cc3ccc4ccccc4c3)C(=O)N[C@@H](c3ccccc3)C(=O)N2)C(=O)NC[C@@H](C(=O)N[C@@H](CC(N)=O)C(=O)N[C@H](CCCNC(=N)N)C(=O)N[C@@H](Cc2cccc(Cl)c2)C(=O)N[C@H](C)C(N)=O)NC(=O)[C@H](CCCNC(=N)N)NC(=O)[C@@H](CCCNC(=N)N)NC1=O | 9 |
| C[C@@H]1NC(=O)[C@@H](Cc2ccccc2)NC(=O)[C@@H]2CCCCNC(=O)c3cc(cc(c3)C(=O)N[C@H](Cc3ccc4ccccc4c3)C(=O)N[C@@H](CO)C(=O)N[C@@H](CC(N)=O)C(=O)N[C@H](Cc3ccc4ccccc4c3)C(=O)N[C@@H](c3ccccc3)C(=O)N2)C(=O)NC[C@@H](C(=O)N[C@@H](CCN)CC(=O)N[C@H](CCCNC(=N)N)C(N)=O)NC(=O)[C@H](CCCNC(=N)N)NC(=O)[C@@H](CCCNC(=N)N)NC1=O | 16 |
| CC(C)C[C@H]1NC(=O)[C@@H](Cc2ccccc2)NC(=O)[C@@H]2CCCCNC(=O)c3cc(cc(c3)C(=O)N[C@H](Cc3ccc4ccccc4c3)C(=O)N[C@@H](CO)C(=O)N[C@@H](CC(N)=O)C(=O)N[C@H](Cc3ccc4ccccc4c3)C(=O)N[C@@H](c3ccccc3)C(=O)N2)C(=O)NC[C@@H](C(=O)N[C@@H](CCCN)C(=O)N[C@H](CCCNC(=N)N)C(=O)N[C@@H](Cc2ccccc2)C(=O)N[C@H](C)C(N)=O)NC(=O)[C@H](CCCNC(=N)N)NC(=O)[C@@H](CCCNC(=N)N)NC1=O | 4.8 |
| C[C@@H]1NC(=O)[C@@H](Cc2ccccc2)NC(=O)[C@@H]2CCCCNC(=O)c3cc(cc(c3)C(=O)N[C@H](Cc3ccc4ccccc4c3)C(=O)N[C@@H](CO)C(=O)N[C@@H](CC(N)=O)C(=O)N[C@H](Cc3ccc4ccccc4c3)C(=O)N[C@@H](c3ccccc3)C(=O)N2)C(=O)NC[C@@H](C(=O)N[C@@H](CCCN)C(=O)N[C@H](CCCNC(=N)N)C(=O)N[C@@H](CCc2ccccc2)C(=O)N[C@H](C)C(N)=O)NC(=O)[C@H](CCCNC(=N)N)NC(=O)[C@@H](CCCNC(=N)N)NC1=O | 9.2 |
| C[C@@H](O)[C@H](NC(=O)[C@H](Cc1ccccc1)NC(=O)[C@@H](CCCNC(=N)N)NC(=O)[C@H](CCCN)NC(=O)[C@@H]1CNC(=O)c2cc3cc(c2)C(=O)N[C@H](Cc2ccc4ccccc4c2)C(=O)N[C@@H](CO)C(=O)N[C@@H](CC(N)=O)C(=O)N[C@H](Cc2ccc4ccccc4c2)C(=O)N[C@@H](c2ccccc2)C(=O)N[C@@H](CCCCNC3=O)C(=O)N[C@H](Cc2ccccc2)C(=O)N[C@H](CCC(N)=O)C(=O)N[C@H](CCCNC(=N)N)C(=O)N[C@@H](CCCNC(=N)N)C(=O)N1)C(N)=O | 2.6 |
| CC(C)[C@H](NC(=O)[C@H](Cc1ccccc1)NC(=O)[C@@H](CCCNC(=N)N)NC(=O)[C@H](CCCN)NC(=O)[C@@H]1CNC(=O)c2cc3cc(c2)C(=O)N[C@H](Cc2ccc4ccccc4c2)C(=O)N[C@@H](CO)C(=O)N[C@@H](CC(N)=O)C(=O)N[C@H](Cc2ccc4ccccc4c2)C(=O)N[C@@H](c2ccccc2)C(=O)N[C@@H](CCCCNC3=O)C(=O)N[C@H](Cc2ccccc2)C(=O)N[C@H](CCC(N)=O)C(=O)N[C@H](CCCNC(=N)N)C(=O)N[C@@H](CCCNC(=N)N)C(=O)N1)C(N)=O | 7.1 |
| C[C@@H]1NC(=O)[C@@H](Cc2ccccc2)NC(=O)[C@@H]2CCCCNC(=O)c3cc(cc(c3)C(=O)N[C@H](Cc3ccc4ccccc4c3)C(=O)N[C@@H](CO)C(=O)N[C@@H](CC(N)=O)C(=O)N[C@H](Cc3ccc4ccccc4c3)C(=O)N[C@@H](c3ccccc3)C(=O)N2)C(=O)NC[C@@H](C(=O)N[C@@H](CCCN)C(=O)N[C@H](CCCNC(=N)N)C(=O)N[C@H](C(=O)N[C@H](C)C(N)=O)c2ccccc2)NC(=O)[C@H](CCCNC(=N)N)NC(=O)[C@@H](CCCNC(=N)N)NC1=O | 4.5 |
| CC[C@H]1NC(=O)[C@@H](Cc2ccccc2)NC(=O)[C@@H]2CCCCNC(=O)c3cc(cc(c3)C(=O)N[C@H](Cc3ccc4ccccc4c3)C(=O)N[C@@H](CO)C(=O)N[C@@H](CC(N)=O)C(=O)N[C@H](Cc3ccc4ccccc4c3)C(=O)N[C@@H](c3ccccc3)C(=O)N2)C(=O)NC[C@@H](C(=O)N[C@@H](CCCN)C(=O)N[C@H](CCCNC(=N)N)C(=O)N[C@@H](Cc2ccccc2)C(=O)N[C@H](C)C(N)=O)NC(=O)[C@H](CCCNC(=N)N)NC(=O)[C@@H](CCCNC(=N)N)NC1=O | 7.2 |

Same assay, conditions: nci-h358

| SMILES | EC50 |
| --- | --- |
| C[C@@H]1NC(=O)[C@@H](Cc2ccccc2)NC(=O)[C@@H]2CCCCNC(=O)c3cc(cc(c3)C(=O)N[C@H](Cc3ccc4ccccc4c3)C(=O)N[C@@H](CO)C(=O)N[C@@H](CC(N)=O)C(=O)N[C@H](Cc3ccc4ccccc4c3)C(=O)N[C@@H](c3ccccc3)C(=O)N2)C(=O)NC[C@@H](C(=O)N[C@@H](CN)C(=O)N[C@H](CCCNC(=N)N)C(=O)N[C@@H](Cc2ccc(F)cc2)C(=O)N[C@H](C)C(N)=O)NC(=O)[C@H](CCCNC(=N)N)NC(=O)[C@@H](CCCNC(=N)N)NC1=O | Not Active |
| C[C@@H](NC(=O)[C@H](Cc1ccccc1)NC(=O)[C@@H](CCCNC(=N)N)NC(=O)[C@H](CCCN)NC(=O)[C@@H]1CNC(=O)c2cc3cc(c2)C(=O)N[C@H](Cc2ccc4ccccc4c2)C(=O)N[C@@H](CCO)C(=O)N[C@@H](CC(N)=O)C(=O)N[C@H](Cc2ccc4ccccc4c2)C(=O)N[C@@H](c2ccccc2)C(=O)N[C@@H](CCCCNC3=O)C(=O)N[C@H](Cc2ccccc2)C(=O)N[C@H](CCC(N)=O)C(=O)N[C@H](CCCNC(=N)N)C(=O)N[C@@H](CCCNC(=N)N)C(=O)N1)C(N)=O | Not Active |
| C[C@@H]1NC(=O)[C@@H](Cc2ccccc2)NC(=O)[C@@H]2CCCCNC(=O)c3cc(cc(c3)C(=O)N[C@H](Cc3ccc4ccccc4c3)C(=O)N[C@@H](CO)C(=O)N[C@@H](CC(N)=O)C(=O)N[C@H](Cc3ccc4ccccc4c3)C(=O)N[C@@H](c3ccccc3)C(=O)N2)C(=O)NC[C@@H](C(=O)N[C@@H](CCCN)C(=O)N[C@H](CCCNC(=N)N)C(=O)N[C@@H](Cc2c[nH]c3ccccc23)C(=O)N[C@H](C)C(N)=O)NC(=O)[C@H](CCCNC(=N)N)NC(=O)[C@@H](CCCNC(=N)N)NC1=O | Not Active |

From ChEMBL document CHEMBL4842360, “Discovery of a Bicyclic Peptidyl Pan-Ras Inhibitor” (J Med Chem, 2021)
